Measured values published in US8030016B2, “Method for screening for vitamin D receptor ligands” (Teijin Pharma Limited, priority 2006, dated 2011).

How the values were obtained:
SaM-1 cells [1] = experiment: Alkaline phosphatase staining of SaM-1 cells infected with Ad-CDP or Ad-mock; settings: 10^−8−10^−7 M, seven days
Procedure: The cells were used to inoculate a 24 well multi-well plate and cultured. When the cells reached 80% confluence, the medium was exchanged for a proliferation medium containing the virus, cultured overnight in order to infect the cells with the virus. Then the medium was exchange for a proliferation medium not containing a virus. […] The medium was exchanged every two days and cultured for seven days. After seven days culturing, alkaline phosphatase staining was performed.

MCF-7 cells = experiment: Differentiation of MCF-7 cells in culture; type: cell-based; settings: culturing in the presence of the compound
[2] = tested on: human osteocalcin gene promoter; experiment: Dual luciferase assay, human osteocalcin gene promoter in HOS cells; type: cell-based; settings: 10^−8 M, 24 hours, endogenous VDR
Procedure: (§1) In order to determine whether or not CDP expression increases VDR ligand-dependent transcription activity, a dual luciferase assay was performed using transient transfection in the same manner as Example 6. The reporter vector used in the dual luciferase assay was a pGL4 vector containing a sequence of human CYP24 gene promoter or a sequence of a human osteocalcin gene promoter upstream of the luciferase gene. The pGL4 vector was commercially obtained from Promega. Furthermore, a DNA sequence encoding a region of 4-427 amino acid residues for human VDR was introduced into a pTracerCMV2 vector (Invitrogen) in order to construct a human VDR expression plasmid. The expression vector for intracellular expression of the CDP protein was the pSPORT6-CDP vector used in Example 4. HOS cells used in the assay were cultured in DMEM medium containing 10% FBS and were passaged every two or three days. The culturing conditions were 37° C., 5% CO2. […] The medium was removed after 24 hours and after washing once in PBS(−), luciferase activity was determined by a Dual-Luciferase Assay kit (Promega) using a luminometer (Bethold Japan). The results were expressed as a “transcription activation” being the value represented by (firefly luciferase activity)/(renilla luciferase activity). […]

[3] = tested on: human CYP24 gene promoter; experiment: Dual luciferase assay, human CYP24 gene promoter in HOS cells; type: cell-based; settings: 10^−8 M, 24 hours
Procedure: as §1

HOS-TE85 cells = experiment: Differentiation of HOS-TE85 cells in culture; type: cell-based; settings: culturing in the presence of the compound
HOS cells = experiment: Gene expression in HOS cells transfected with pSPORT6-CDP, real-time RT-PCR; type: cell-based, human; settings: HOS cells with CDP introduced, various concentrations, three days, relative to GAPDH
Procedure: After three days, cells were recovered, and total RNA was extracted using an RNeasy Mini Kit (QIAGEN, Product No. 74104). Reverse transcription reactions were performed by oligo dT primers using SuperScriptlll RT (Invitrogen, 18080-044) and the amount of expression of various genes was determined using real-time RT-PCR (Applied Biosystems, GeneAmp7000). The amount of gene expression was corrected using GAPDH which is a housekeeping gene and shown as a relative figure of GAPDH and the amount of respective gene expression. The formula used is the same as that used in Example 5.

HeLa cells = experiment: Differentiation of HeLa cells in culture; type: cell-based; settings: culturing in the presence of the compound
SaM-1 cells [4] = experiment: Gene expression during osteoblast differentiation of SaM-1 cells, real-time RT-PCR; type: cell-based, human; settings: various concentrations, up to 28 days, relative to beta actin
Source text: The medium was replaced every 2 to 3 days. Cells were recovered at the fourth day, seventh day, fourteenth day, and twenty-eighth day until the final differentiation (calcification) on the twenty-eighth day. Total RNA was extracted using an RNeasy Mini Kit (QIAGEN, Product No. 74104) and cDNA synthesized using an Ommniscript RTKit (QIAGEN, Product No. 205110). The cDNA was mixed with SYBR Green PCR Master Mix (Applied Biosystems, Product No. 4367659) and primer oligos suitable for amplifying various types of genes. Variation in the gene expression of the alkaline phosphatase which is a marker for osteoblast differentiation, CDP and osteocalcin, and beta actin which is known as a universally expressed housekeeping gene was examined by real-time RT-PCR using a GeneAmp 5700 Sequence Detection System (Applied Biosystems) or ABI PRISM 7000 Sequence Detection System (Applied Biosystems). Oligos complementary to the various genes were designed by general methods and synthesized by Sigma Genosys. The results are shown by relative values with respect to the amount of expression of beta actin. […] The value for the relative amount of expression is calculated using the formula 2^−(ΔΔCT of target gene−ΔΔCT of beta actin).

[5] = biological target: T1, CCAAT Displacement Protein (CDP), endogenous protein in nuclear protein extracts (human, UniProt P39880 1-1505, limits assumed); experiment: immunoprecipitation with anti-CDP antibody of the glutathione eluate of GST-VDR-bound HOS nuclear proteins (with 1,25(OH)2D3); western blot
T1 construct: Endogenous protein of nuclear extracts from HOS (human osteoblast cell strain), HeLa or Caco-2 cells; also called CUTL1; CUX
T1 sequence (P39880 whole entry): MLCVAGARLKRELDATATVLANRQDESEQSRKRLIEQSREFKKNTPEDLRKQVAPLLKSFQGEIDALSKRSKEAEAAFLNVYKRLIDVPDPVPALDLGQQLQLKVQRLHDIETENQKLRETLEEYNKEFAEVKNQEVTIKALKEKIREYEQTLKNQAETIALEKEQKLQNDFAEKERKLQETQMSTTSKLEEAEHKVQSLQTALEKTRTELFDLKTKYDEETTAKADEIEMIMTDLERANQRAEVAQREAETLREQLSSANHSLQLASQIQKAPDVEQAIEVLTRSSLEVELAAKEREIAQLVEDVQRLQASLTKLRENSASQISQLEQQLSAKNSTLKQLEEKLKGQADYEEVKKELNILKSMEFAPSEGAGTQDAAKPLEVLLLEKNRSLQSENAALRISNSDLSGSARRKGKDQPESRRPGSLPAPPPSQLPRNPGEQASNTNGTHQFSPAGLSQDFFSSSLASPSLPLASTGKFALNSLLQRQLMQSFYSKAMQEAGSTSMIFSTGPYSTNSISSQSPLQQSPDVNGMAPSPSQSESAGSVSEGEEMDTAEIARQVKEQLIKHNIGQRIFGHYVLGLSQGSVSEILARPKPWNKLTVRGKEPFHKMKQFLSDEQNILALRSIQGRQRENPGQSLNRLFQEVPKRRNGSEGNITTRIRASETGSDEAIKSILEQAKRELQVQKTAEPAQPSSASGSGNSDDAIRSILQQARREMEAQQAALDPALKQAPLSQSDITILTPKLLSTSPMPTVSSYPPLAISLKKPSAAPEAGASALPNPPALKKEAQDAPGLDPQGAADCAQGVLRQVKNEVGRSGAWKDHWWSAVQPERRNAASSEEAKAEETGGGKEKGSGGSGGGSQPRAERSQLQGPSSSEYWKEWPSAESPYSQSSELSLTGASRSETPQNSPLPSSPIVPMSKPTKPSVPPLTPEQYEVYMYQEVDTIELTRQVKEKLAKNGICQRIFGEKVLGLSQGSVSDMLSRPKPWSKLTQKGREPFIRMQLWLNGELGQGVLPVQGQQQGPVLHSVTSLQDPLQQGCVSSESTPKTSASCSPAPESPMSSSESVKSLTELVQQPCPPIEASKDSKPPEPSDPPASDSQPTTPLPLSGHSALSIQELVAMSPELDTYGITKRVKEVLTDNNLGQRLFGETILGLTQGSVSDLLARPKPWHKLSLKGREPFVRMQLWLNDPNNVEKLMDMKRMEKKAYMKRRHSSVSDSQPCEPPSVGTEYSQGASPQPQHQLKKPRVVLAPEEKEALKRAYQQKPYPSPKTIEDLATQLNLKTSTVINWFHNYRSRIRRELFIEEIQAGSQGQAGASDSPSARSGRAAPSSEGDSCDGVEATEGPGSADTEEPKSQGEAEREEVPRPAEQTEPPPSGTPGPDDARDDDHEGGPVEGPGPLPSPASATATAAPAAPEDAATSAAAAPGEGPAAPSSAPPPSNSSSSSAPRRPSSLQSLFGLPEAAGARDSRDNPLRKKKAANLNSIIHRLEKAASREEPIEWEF

| Molecule | number of alkaline phosphatase-positive cells (SaM-1 cells [1]; Ad-CDP group (CDP over-expressed)) | number of alkaline phosphatase-positive cells (SaM-1 cells [1]; Ad-mock group) | cell differentiation (MCF-7 cells) | VDR-mediated transcription activation of a human osteocalcin promoter [2] | VDR-mediated transcription activation of a human osteocalcin promoter when CDP is expressed ([2]; pSPORT6-CDP co-transfected) | VDR-mediated transcription activation of a human CYP24 promoter [3] | VDR-mediated transcription activation of a human CYP24 promoter when CDP is expressed ([3]; pSPORT6-CDP co-transfected) | cell differentiation (HOS-TE85 cells) | gene expression of CYP24 (HOS cells) | gene expression of alkaline phosphatase (ALP) (HOS cells) | gene expression of osteocalcin (HOS cells) | cell differentiation (HeLa cells) | gene expression of CDP (SaM-1 cells [4]) | gene expression of osteocalcin (SaM-1 cells [4]) | binding result [5] |
| --- | --- | --- | --- | --- | --- | --- | --- | --- | --- | --- | --- | --- | --- | --- | --- |
| C=C1/C(=C\C=C2/CCC[C@]3(C)[C@@H]([C@H](C)CCCC(C)(C)O)CC[C@@H]23)C[C@@H](O)C[C@@H]1O [1,25 (OH)2D3, 1α,25-dihydroxyvitamin D3] | conspicuously higher increase in the number of alkaline phosphatase-positive cells | increase in the number of alkaline phosphatase-positive cells | this type of action was not seen | increases | further increased when CDP is expressed | increases | further increased when CDP is expressed | differentiate | increased | increased | increased | this type of action was not seen | increase | increase | – |
| TRAP100, endogenous protein in nuclear protein extracts (other, human, UniProt O75448 1-989, looked up) MKVVNLKQAILQAWKERWSDYQWAINMKKFFPKGATWDILNLADALLEQAMIGPSPNPLILSYLKYAISSQMVSYSSVLTAISKFDDFSRDLCVQALLDIMDMFCDRLSCHGKAEECIGLCRALLSALHWLLRCTAASAERLREGLEAGTPAAGEKQLAMCLQRLEKTLSSTKNRALLHIAKLEEASSWTAIEHSLLKLGEILANLSNPQLRSQAEQCGTLIRSIPTMLSVHAEQMHKTGFPTVHAVILLEGTMNLTGETQSLVEQLTMVKRMQHIPTPLFVLEIWKACFVGLIESPEGTEELKWTAFTFLKIPQVLVKLKKYSHGDKDFTEDVNCAFEFLLKLTPLLDKADQRCNCDCTNFLLQECGKQGLLSEASVNNLMAKRKADREHAPQQKSGENANIQPNIQLILRAEPTVTNILKTMDADHSKSPEGLLGVLGHMLSGKSLDLLLAAAAATGKLKSFARKFINLNEFTTYGSEESTKPASVRALLFDISFLMLCHVAQTYGSEVILSESRTGAEVPFFETWMQTCMPEEGKILNPDHPCFRPDSTKVESLVALLNNSSEMKLVQMKWHEACLSISAAILEILNAWENGVLAFESIQKITDNIKGKVCSLAVCAVAWLVAHVRMLGLDEREKSLQMIRQLAGPLFSENTLQFYNERVVIMNSILERMCADVLQQTATQIKFPSTGVDTMPYWNLLPPKRPIKEVLTDIFAKVLEKGWVDSRSIHIFDTLLHMGGVYWFCNNLIKELLKETRKEHTLRAVELLYSIFCLDMQQVTLVLLGHILPGLLTDSSKWHSLMDPPGTALAKLAVWCALSSYSSHKGQASTRQKKRHREDIEDYISLFPLDDVQPSKLMRLLSSNEDDANILSSPTDRSMSSSLSASQLHTVNMRDPLNRVLANLFLLISSILGSRTAGPHTQFVQWFMEECVDCLEQGGRGSVLQFMPFTTVSELVKVSAMSSPKVVLAITDLSLPLGRQVAAKAIAAL | – | – | – | – | – | – | – | – | – | – | – | – | – | – | no binding |
